# Test results: article PMC10064330, “Reversible Dual-Covalent Molecular Locking of the 14-3-3/ERRγ Protein–Protein Interaction as a Molecular Glue Drug Discovery Approach” (Journal of the American Chemical Society, 2023)
# Molecular target: T1, 14-3-3γ/SOS1 complex (Homo sapiens, UniProt P61981)
# T1 construct: made in house; host or cells: E. coli NiCo21 (DE3)
# T1 sequence (P61981 1-247): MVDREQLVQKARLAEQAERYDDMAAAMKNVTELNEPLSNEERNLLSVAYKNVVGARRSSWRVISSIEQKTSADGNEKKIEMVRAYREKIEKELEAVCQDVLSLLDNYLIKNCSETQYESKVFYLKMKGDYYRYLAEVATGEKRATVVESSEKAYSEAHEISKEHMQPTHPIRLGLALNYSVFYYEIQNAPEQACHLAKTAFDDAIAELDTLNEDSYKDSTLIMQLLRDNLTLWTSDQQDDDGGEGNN
# Assay: FA selectivity screen, SOS1 client peptide
# Assay type: binding
# Conditions: 100 μM compound, SOS1 peptide (+1 Ala)
# Description: Drugging the hub protein 14-3-3 raises the challenge of selectivity, given that 14-3-3 binds several hundred phosphoprotein partners (Figure 4a).[54] We hypothesized that the interplay of chemical reactivity, the topology, and functionality of the composite binding pocket shaped by 14-3-3 and the interaction partner drives selective stabilization of the 14-3-3/ERRγ complex.[53] To validate selectivity, molecular locks 5 and 10 were tested against a panel of nine 14-3-3 client peptides in an FA assay, and the SF100 was determined for each 14-3-3 PPI (Figure 4b and Figures S18–S20). This client panel contained a diverse representation of 14-3-3 binding proteins, differing for example in size and hydrophobicity of the +1 amino acid. Importantly, clients PKR and RND3, each containing a +1 Cys, were included in the panel.
# Figure S20. KD and SF100 plot – selectivity screen. […]
# nine different client peptides in presence of DMSO (negative control) or 100 µM of compound 1, 5 or 10 (based on binding curves in Figure S19). […]
# A pPROEX HTb expression vector encoding the human 14-3-3 protein gamma (14-3-3γ) with a N-terminal his6-tag was transformed by heat shock into NiCo21 (DE3) competent cells. […] Finally, the protein was concentrated to ∼60 mg/mL, analyzed Q-Tof LC/MS, and aliquots were flash-frozen for storage at −80 °C. […]
smiles,measurement,value
CN(C)CCSSCCN(C)C(=O)c1ccc(C=O)c(F)c1 [compound 5],off-target effect in client screen,minor off-target effects
